Non-standard residues stand in square brackets, D forms with d. Residues, ends and D or L forms follow the SMILES beside them. dPhe(4-NH2) = Nc1ccc(C[C@@H](N)C(=O)O)cc1; dPhe(4-Cl) = N[C@H](Cc1ccc(Cl)cc1)C(=O)O; Phe(4-NH2) = Nc1ccc(C[C@H](N)C(=O)O)cc1; d2Nal = N[C@H](Cc1ccc2ccccc2c1)C(=O)O; Lys(iPr) = CC(C)NCCCC[C@H](N)C(=O)O; d3Pal = N[C@H](Cc1cccnc1)C(=O)O
Assay: Gelation of acyline in pH 6.8 buffer with sodium caprate and Tween 80 (filtration, reverse phase HPLC)
Assay type: physicochemical
Method: Different concentrations of acyline composition are prepared by adding acyline to pH 6.8 buffer solution either at room temperature or 37° C. All acyline solutions contain 0.6 mg/mL sodium caprate (sodium caprate is referred as C10 in the figures). All samples are centrifuged and filtered prior to analysis. Samples are analyzed by reverse phase HPLC with UV detection. 10 mg acyline is transferred into […] volumetric flask. A pH 6.8 buffer solution is preheated to 37° C. Then, 100 mL pre-heated buffer solution and 0.6 mg/mL sodium caprate is added to the flask to prepare a 0.1 mg/mL acyline sample. In a similar manner, Tween 80 is added to prepare a 0.1 mg/mL acyline solution with 1% Tween 80. Samples are shaken in a temperature controlled water bath at 37° C. 5 mL samples are taken at 1, 5, 10, 15, 20, 30 and 120 minutes after mixing acyline with the buffer solution. Samples are filtered immediately through 0.45 μm filters and the first 3 mL is discarded. Filtered samples are analyzed, undiluted, by reverse phase HPLC with UV detection. All samples are prepared in duplicate and the concentration was obtained for the analysis from the mean of the duplicates. The result of comparison of 1% and 0% Tween 80 at 0.1 mg/mL acyline sample is graphically recorded in FIG. 5. […] A similar experimental procedure as Example 4 is used to prepare acyline sample for example 5. The result of comparison of 5 mg/mL, 1 mg/mL, 0.1 mg/mL and 1% Tween in phosphate buffer containing 0.6 mg/mL of sodium caprate and 0.1 mg/mL acyline is graphically recorded in FIG. 6. […] A similar experimental procedure as Example 4 is used to prepare acyline sample for example 6. The result of comparison of 1% and 1 mg/mL Tween 80 in 0.1 and 0.01 mg/mL acyline sample is graphically recorded in FIG. 7. […] A similar experimental procedure as Example 4 is used to prepare acyline sample for example 7. The result of comparison of 0.01 mg/mL acyline samples having 0.1%, 0.5% and 1% Tween 80 is graphically recorded in FIG. 8.

CC(=O)Nc1ccc(C[C@H](NC(=O)[C@H](CO)NC(=O)[C@@H](Cc2cccnc2)NC(=O)[C@@H](Cc2ccc(Cl)cc2)NC(=O)[C@@H](Cc2ccc3ccccc3c2)NC(C)=O)C(=O)N[C@H](Cc2ccc(NC(C)=O)cc2)C(=O)N[C@@H](CC(C)C)C(=O)N[C@@H](CCCCNC(C)C)C(=O)N2CCC[C@H]2C(=O)N[C@H](C)C(N)=O)cc1 [acyline, Ac-D2Nal-D4Cpa-D3Pal-Ser4Aph(Ac)-D4Aph(Ac)-Leu-ILys-Pro-DAla-NH2] (Ac-[d2Nal][dPhe(4-Cl)][d3Pal]S[Phe(4-NH2)](Ac)[dPhe(4-NH2)](Ac)L[Lys(iPr)]P[dA]-NH2)
gelation of acyline (0.01 mg/mL acyline sample, 1% Tween 80 (versus 0.1% and 0.5%)): significantly reduces the gelation
gelation of acyline (0.1 mg/mL acyline, pH 6.8 buffer, 37° C., 0.6 mg/mL sodium caprate alone (below CMC), 0% Tween 80): insufficient to reduce the gelation
gelation of acyline (0.1 mg/mL and 0.01 mg/mL acyline sample, 1% Tween 80): reduces gelation

— patent US8999383B2, “Compositions of GnRH related compounds and processes of preparation” (Merrion Research III Limited, priority 2008, dated 2015)
